According to patent US8580825B2, “Oxadiazole inhibitors of leukotriene production” (Boehringer Ingelheim International GmbH, priority 2010, dated 2013):

Key:
[1] = system: biomarkers for myocardial infarction risk; settings: clinical trial; cited from earlier work
[2] = system: synthesis of LTB4 in human whole blood; assay: human whole blood LTB4 production inhibition assay; format: cell-based; settings: calcimycin stimulated, read-out: hWB LTB4 IC50
Procedure, shortened: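 Readout: plasma LTB4 by antibody-based HTRF. Compound added to heparinized human whole blood, 15 min 37° C; calcimycin 20 μM final (PBS pH 7.4), 30 min 37° C; spun 1500×g 5 min, plasma taken.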

[3] = target: T1, recombinant human FLAP protein (Homo sapiens, UniProt P20292); assay: FLAP binding assay (Scintillation Proximity Assay, displacement of [125I]L-691,831); settings: read-out: FLAP SPA IC50
T1 construct: made in house; host or cells: Sf9 insect cells (100,000xg membrane fraction used)
T1 sequence (P20292 1-161): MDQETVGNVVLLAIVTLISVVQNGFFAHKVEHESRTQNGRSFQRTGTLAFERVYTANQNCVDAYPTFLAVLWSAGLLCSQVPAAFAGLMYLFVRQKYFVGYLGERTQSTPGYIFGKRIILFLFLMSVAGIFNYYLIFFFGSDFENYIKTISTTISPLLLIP
Procedure, shortened: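 Scintillation proximity displacement of [125I]L-691,831 (0.08 nM) from membranes of sf9 cells expressing recombinant human FLAP (5 μg/well) on WGA SPA beads, pH 7.5 Tris buffer. Plates shaken 2 h before counting. Non-specific binding defined with 10 μM unlabelled L-691,831.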

human glomerulonephritis = settings: clinical trial; cited from earlier work
ApoE−/−xCD4dnTβRII mice = settings: infusion, treated for four weeks; cited from earlier work
[4] = system: apoE/LDL-R double knockout mice; settings: oral dosing, high-fat diet from 2 months of age to 6 months; cited from earlier work

Row | IC50 [2] [nM] | IC50 [3] [nM] | Structure (SMILES) | other results
1 | – | – | O=C(O)[C@@H](c1ccc(OCc2ccc3ccccc3n2)cc1)C1CCCC1 [DG-031] | effect on biomarkers for myocardial infarction risk [1]: dose-dependent suppression of several biomarkers
2 | 483 | 450 | Cc1nc(N)ncc1-c1ccc(C(C)(c2noc(-c3cnn(CC(C)(C)O)c3)n2)C2CC2)cn1 (centres unmarked) [Example 179, 1-[4-(3-{1-[6-(2-Amino-4-methyl-pyrimidin-5-yl)-pyridin-3-yl]-1-cyclopropyl-ethyl}-[1,2,4]oxadiazol-5-yl)-pyrazol-1-yl]-2-methyl-propan-2-ol] | –
3 | 309 | 190 | Cc1nc(N)ncc1-c1ccc(C(C)(c2noc(-c3cnn(C)c3)n2)C2CC2)cn1 (centres unmarked) [Example 180, 5-(5-{1-Cyclopropyl-1-[5-(1-methyl-1H-pyrazol-4-yl)-[1,2,4]oxadiazol-3-yl]-ethyl}-pyridin-2-yl)-4-methyl-pyrimidin-2-ylamine] | –
4 | 65 | 34 | Cn1cc(-c2nc(C(C)(c3ccc(-c4cnc(N)cn4)nc3)C3CC3)no2)cn1 (centres unmarked) [Example 181, 5-(5-{1-Cyclopropyl-1-[5-(1-methyl-1H-pyrazol-4-yl)-[1,2,4]oxadiazol-3-yl]-ethyl}-pyridin-2-yl)-pyrazin-2-ylamine] | –
5 | – | – | CC(C)(C)Sc1c(CC(C)(C)C(=O)O)n(Cc2ccc(Cl)cc2)c2ccc(OCc3ccc4ccccc4n3)cc12 [MK-591] | effect on proteinuria (human glomerulonephritis): reduce proteinuria
6 | – | – | CC(C)c1ccc2c(c1)c(SC(C)(C)C)c(CC(C)(C)C(=O)O)n2Cc1ccc(Cl)cc1 [MK-886] | decrease in plaque area in the aortic root (ApoE−/−xCD4dnTβRII mice): ~40%; decrease in plaque coverage in the aorta [4]: 56%; decrease in plaque coverage in the aortic root [4]: 43%
